Reference: patent US20230114728A1 (Venatorx Pharmaceuticals, Inc., priority 2019, published 2023)
≈ marks a conversion by molar mass, not a printed value.

Columns and labels:
Test in all cases: Broth microdilution MIC in CAMHB
Assay type in all cases: cell-based
A. baumannii ATCC 19606 = details: Acinetobacter baumannii, ATCC19606; MHB; read-out: Minimum Inhibitory Concentration, A. baumannii ATCC 19606
Summary of the method: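 Hyper-permeable or efflux-deficient strains serve to probe outer-membrane penetration. Growth inhibition is scored visually after 16-20 h at 37° C in CAMHB, starting from 2-8×10^5 CFU/mL.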

E. coli ATCC 25922 = details: Escherichia coli, ATCC25922; E. coli ATCC 25922; MHB; read-out: Minimum Inhibitory Concentration, E. coli 25922
Summary of the method: (§1)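 MIC, read by eye, is the lowest compound concentration giving no bacterial growth after 16-20 h at 37° C. Test compounds are serially diluted 2-fold in CAMHB and seeded with 2-8×10^5 CFU/mL of bacteria taken from a 3-5 h shaking culture, following CLSI methods.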

E. coli AG100A = details: Escherichia coli, read-out: Minimum Inhibitory Concentration, E. coli AG100A
Summary of the method: as §1

[1] = tested on: K. pneumoniae 848844 producing SHV-11 and KPC-2; details: Klebsiella pneumoniae, read-out: Minimum Inhibitory Concentration, K. pneumoniae 848844
Summary of the method: as §1

E. coli AG100 = details: Escherichia coli; E. coli AG100 (wild-type parent); MHB; read-out: Minimum Inhibitory Concentration, E. coli AG100
Summary of the method: as §1

[2] = tested on: P. aeruginosa (ΔmexAB-oprM); details: Pseudomonas aeruginosa, read-out: Minimum Inhibitory Concentration, P. aeruginosa ΔmexAB-OprM
Summary of the method: as §1

E. coli D22 = details: Escherichia coli; E. coli D22 (hyper-permeable); MHB; read-out: Minimum Inhibitory Concentration, E. coli D22
Summary of the method: as §1

[3] = tested on: K. pneumoniae UMM producing SHV-5 and KPC-2; details: Klebsiella pneumoniae, read-out: Minimum Inhibitory Concentration, K. pneumoniae UMM
Summary of the method: as §1

[4] = tested on: K. pneumoniae SI-117 producing VIM-1; details: Klebsiella pneumoniae, read-out: Minimum Inhibitory Concentration, K. pneumoniae SI-117
Summary of the method: as §1

P. aeruginosa ATCC 27853 = details: Pseudomonas aeruginosa, ATCC27853; MHB; read-out: Minimum Inhibitory Concentration, P. aeruginosa ATCC 27853
Summary of the method: as §1

P. aeruginosa ATCC 35151 = details: Pseudomonas aeruginosa, ATCC35151; MHB; hyper-permeable strain; read-out: Minimum Inhibitory Concentration, P. aeruginosa ATCC 35151
Summary of the method: as §1

E. coli 901C = details: Escherichia coli; E. coli 901C (hyper-permeable); MHB; read-out: Minimum Inhibitory Concentration, E. coli 901C
Summary of the method: as §1

Row | Structure (SMILES) | MIC (A. baumannii ATCC 19606) | MIC (E. coli ATCC 25922) | MIC (E. coli AG100A) | MIC [1] | MIC (E. coli AG100) | MIC [2] | MIC (E. coli D22) | MIC [3] | MIC [4] | MIC (P. aeruginosa ATCC 27853) | MIC (P. aeruginosa ATCC 35151) | MIC (E. coli 901C)
1 | O=C(Nc1ccccc1)NC(C(=O)N[C@H]1Cc2ccc(F)c(C(=O)O)c2OB1O)c1ncc(O)cc1F (stereo partly drawn) [Example 49, (3R)-7-fluoro-3-(2-(3-fluoro-5-hydroxypyridin-2-yl)-2-(3-phenylureido)acetamido)-2-hydroxy-3,4-dihydro-2H-benzo[e][1,2]oxaborinine-8-carboxylic acid] | > 128 µg/mL | > 128 µg/mL | > 128 µg/mL | > 128 µg/mL | > 128 µg/mL | 32 to 64 µg/mL (≈ 62.5 to 125 µM) | 8 to 16 µg/mL (≈ 15.6 to 31.2 µM) | > 128 µg/mL | > 128 µg/mL | > 128 µg/mL | 2 to 4 µg/mL (≈ 3.9 to 7.81 µM) | 32 to 64 µg/mL (≈ 62.5 to 125 µM)
2 | N=C(N)NC(C(=O)N[C@H]1Cc2ccc(F)c(C(=O)O)c2OB1O)c1ncc(O)cc1F (stereo partly drawn) [Example 52, (3R)-7-fluoro-3-(2-(3-fluoro-5-hydroxypyridin-2-yl)-2-guanidinoacetamido)-2-hydroxy-3,4-dihydro-2H-benzo[e][1,2]oxaborinine-8-carboxylic acid] | > 128 µg/mL | > 128 µg/mL | > 128 µg/mL | > 128 µg/mL | > 128 µg/mL | > 128 µg/mL | > 128 µg/mL | > 128 µg/mL | > 128 µg/mL | > 128 µg/mL | > 128 µg/mL | > 128 µg/mL
3 | NS(=O)(=O)NC(C(=O)N[C@H]1Cc2cccc(C(=O)O)c2OB1O)c1ccc(C(=O)O)c(F)c1 (stereo partly drawn) [Example 44, (3R)-3-(2-(4-carboxy-3-fluorophenyl)-2-(sulfamoylamino)acetamido)-2-hydroxy-3,4-dihydro-2H-benzo[e][1,2]oxaborinine-8-carboxylic acid] | > 128 µg/mL | > 128 µg/mL | > 128 µg/mL | > 128 µg/mL | > 128 µg/mL | > 128 µg/mL | > 128 µg/mL | > 128 µg/mL | > 128 µg/mL | > 128 µg/mL | 32 to 64 µg/mL (≈ 66.5 to 133 µM) | > 128 µg/mL
4 | CCN1CCN(C(=O)NC(C(=O)N[C@H]2Cc3cccc(C(=O)O)c3OB2O)c2ccc(O)c(NC(C)=O)c2)C(=O)C1=O (stereo partly drawn) [Example 17, (3R)-3-(2-(3-acetamido-4-hydroxyphenyl)-2-(4-ethyl-2,3-dioxopiperazine-1-carboxamido)acetamido)-2-hydroxy-3,4-dihydro-2H-benzo[e][1,2]oxaborinine-8-carboxylic acid] | > 128 µg/mL | > 128 µg/mL | 8 to 16 µg/mL (≈ 13.8 to 27.5 µM) | > 128 µg/mL | > 128 µg/mL | 8 to 16 µg/mL (≈ 13.8 to 27.5 µM) | 2 to 4 µg/mL (≈ 3.44 to 6.88 µM) | 32 to 64 µg/mL (≈ 55 to 110 µM) | > 128 µg/mL | > 128 µg/mL | 2 to 4 µg/mL (≈ 3.44 to 6.88 µM) | 0.5 to 1 µg/mL (≈ 0.86 to 1.72 µM)
5 | CCN1CCN(C(=O)NC(C(=O)N[C@H]2Cc3ccc(SCc4ccc(O)cc4)c(C(=O)O)c3OB2O)c2csc(N)n2)C(=O)C1=O (stereo partly drawn) [Example 55, (3R)-3-(2-(2-aminothiazol-4-yl)-2-(4-ethyl-2,3-dioxopiperazine-1-carboxamido)acetamido)-2-hydroxy-7-((4-hydroxybenzyl)thio)-3,4-dihydro-2H-benzo[e][1,2]oxaborinine-8-carboxylic acid] | > 128 µg/mL | 32 to 64 µg/mL (≈ 47.9 to 95.7 µM) | 32 to 64 µg/mL (≈ 47.9 to 95.7 µM) | > 128 µg/mL | > 128 µg/mL | 32 to 64 µg/mL (≈ 47.9 to 95.7 µM) | 8 to 16 µg/mL (≈ 12 to 23.9 µM) | > 128 µg/mL | > 128 µg/mL | – | 0.5 to 1 µg/mL (≈ 0.748 to 1.5 µM) | 0.5 to 1 µg/mL (≈ 0.748 to 1.5 µM)
6 | CCN1CCN(C(=O)NC(C(=O)N[C@H]2Cc3ccc(S)c(C(=O)O)c3OB2O)c2csc(N)n2)C(=O)C1=O (stereo partly drawn) [Example 54, (3R)-3-(2-(2-aminothiazol-4-yl)-2-(4-ethyl-2,3-dioxopiperazine-1-carboxamido)acetamido)-2-hydroxy-7-mercapto-3,4-dihydro-2H-benzo[e][1,2]oxaborinine-8-carboxylic acid] | > 128 µg/mL | > 128 µg/mL | > 128 µg/mL | > 128 µg/mL | > 128 µg/mL | 32 to 64 µg/mL (≈ 56.9 to 114 µM) | 32 to 64 µg/mL (≈ 56.9 to 114 µM) | > 128 µg/mL | > 128 µg/mL | – | 8 to 16 µg/mL (≈ 14.2 to 28.4 µM) | 0.5 to 1 µg/mL (≈ 0.889 to 1.78 µM)
